Measured values: patent US10669302B2, “Crystal form of fludarabine phosphate, preparation method therefor, and application thereof” (Zhejiang Hisun Pharmaceutical Co., Ltd., priority 2015, dated 2020)

Experiments:
[1] = Tests of dissolution rates (turbidimeter, purified water); type: physicochemical; design: Reading: unit not given here; settings: for Solution state / Turbidity / Reading: 50 mg in 10 ml purified water; for Clarity achieved in purified water: in a short period of time, summary of Table 3; for Reading: turbidimeter
Method: The turbidimeter and the test conditions involved in the present invention are: turbidimeter model: MERCK TURBIQUANT 1500IR; operation method: the purified water was used as a zero point control, 50 mg of crystal form I of fludarabine phosphate and 50 mg of crystal form II of fludarabine phosphate were dissolved in 10 ml of purified water respectively as test samples, the specific test data can be seen in Table 3.
Tests of Dissolution Rates for Crystal Form I and Crystal Form II of Fludarabine Phosphate

[2] = Stability tests (sealed PE and aluminum foil bags, liquid chromatography); type: physicochemical; settings: for Stability in words: under room temperature and refrigerated conditions, summary of Table 4
Method: The liquid chromatography test conditions involved in the present invention are: chromatographic column: SHIMADZU, VP-ODS, 4.6 mm×15 cm 5 μm or equivalent;
mobile phase A: 10 mM monopotassium phosphate (0.01 mol/l):methanol=47:3; detection wavelength: 260 nm; flow rate: 1.0 ml/min; injection volume: 10 μl.
Packaging condition: crystal form I and crystal form II of fludarabine phosphate were first sealed and packaged with PE bags respectively, and then sealed and packaged with aluminum foil bags outside, the samples were reserved at room temperature and refrigerated conditions, the samples were tested with the liquid chromatography. The test condition of the liquid chromatography is described in SUMMARY OF THE INVENTION section of this application.

[3] = 10 s, listed as Cyrstal form II
[4] = 40 s, listed as Cyrstal form II
[5] = before the samples were reserved
[6] = refrigerated (2-10° C.), humidity 75%, reserved for five months
[7] = refrigerated (2-10° C.), humidity 75%, reserved for four months
[8] = refrigerated (2-10° C.), humidity 75%, reserved for one month
[9] = refrigerated (2-10° C.), humidity 75%, reserved for six months
[10] = refrigerated (2-10° C.), humidity 75%, reserved for three months
[11] = refrigerated (2-10° C.), humidity 75%, reserved for two months
[12] = room temperature (10-30° C.), humidity 75%, reserved for five months
[13] = room temperature (10-30° C.), humidity 75%, reserved for four months
[14] = room temperature (10-30° C.), humidity 75%, reserved for one month
[15] = room temperature (10-30° C.), humidity 75%, reserved for six months
[16] = room temperature (10-30° C.), humidity 75%, reserved for three months
[17] = room temperature (10-30° C.), humidity 75%, reserved for two months

SMILES | Solution state ([1]; 70 s) | Solution state ([1]; 80 s) | Solution state ([1]; 90 s) | Solution state ([1]; 100 s) | Clarity achieved in purified water [1] | Liquid chromatography result of stability sample [2, 5] [%] | Liquid chromatography result of stability sample [2, 6] [%] | Liquid chromatography result of stability sample [2, 7] [%] | Liquid chromatography result of stability sample [2, 8] [%] | Liquid chromatography result of stability sample [2, 9] [%] | Liquid chromatography result of stability sample [2, 10] [%] | Liquid chromatography result of stability sample [2, 11] [%] | Liquid chromatography result of stability sample [2, 12] [%] | Liquid chromatography result of stability sample [2, 13] [%] | Liquid chromatography result of stability sample [2, 14] [%] | Liquid chromatography result of stability sample [2, 15] [%] | Liquid chromatography result of stability sample [2, 16] [%] | Liquid chromatography result of stability sample [2, 17] [%] | Stability in words [2] | further results
Nc1nc(F)nc2c1ncn2[C@@H]1O[C@H](COP(=O)(O)O)[C@@H](O)[C@@H]1O [Crystal form II, 9-β-D-arabinofuranosyl-2-fluoroadenine-5′-phosphate] | Clear | Clear | Clear | Clear | good clarity | 99.677 | 99.677 | 99.677 | 99.677 | 99.677 | 99.677 | 99.677 | 99.663 | 99.663 | 99.673 | 99.663 | 99.667 | 99.668 | good stabilities | Solution state ([1]; 5 s, listed as Cyrstal form II): Turbid; Turbidity ([1]; 5 s, listed as Cyrstal form II): Sample >1; Solution state [1, 3]: Turbid; Turbidity [1, 3]: Sample >1; Solution state ([1]; 20 s, listed as Cyrstal form II): Turbid; Solution state ([1]; 30 s, listed as Cyrstal form II): Turbid; Solution state [1, 4]: Turbid; Reading [1, 4]: 6.41; Reading ([1]; 50 s, listed as Cyrstal form II): 4.54; Reading ([1]; 60 s, listed as Cyrstal form II): 3.32; Reading ([1]; 70 s, listed as Cyrstal form II): 2.56; Reading ([1]; 80 s, listed as Cyrstal form II): 2.41; Reading ([1]; 90 s, listed as Cyrstal form II): 2.29; Reading ([1]; 100 s, listed as Cyrstal form II): 2.29
Nc1nc(F)nc2c1ncn2[C@@H]1O[C@H](COP(=O)(O)O)[C@@H](O)[C@@H]1O [Crystal form I, 9-β-D-arabinofuranosyl-2-fluoroadenine-5′-phosphate] | Clear | Clear | Clear | Clear | good clarity | 99.685 | 99.685 | 99.685 | 99.685 | 99.685 | 99.685 | 99.685 | 99.684 | 99.684 | 99.685 | 99.684 | 99.685 | 99.685 | good stabilities | Solution state ([1]; 5 s): Clear; Solution state ([1]; 10 s): Clear; Solution state ([1]; 20 s): Clear; Solution state ([1]; 30 s): Clear; Solution state ([1]; 40 s): Clear; Solution state ([1]; 50 s): Clear; Solution state ([1]; 60 s): Clear; Reading ([1]; 5 s): 2.2; Reading ([1]; 10 s): 1.75; Reading ([1]; 20 s): 1.75; Reading ([1]; 30 s): 1.75; Reading ([1]; 40 s): 1.75; Reading ([1]; 50 s): 1.75; Reading ([1]; 60 s): 1.75; Reading ([1]; 70 s): 1.75; Reading ([1]; 80 s): 1.75; Reading ([1]; 90 s): 1.75; Reading ([1]; 100 s): 1.75
